Data reported in patent publication US4206125A, “5-[2-[(2,3-Dihydro-1,4-benzodioxan-2-ylmethyl)amino]-1-hydrox yethyl]-2-hydroxybenzoic acid derivatives” (Richardson-Merrell Inc., priority 1979, dated 1980).

Tests used:
[1] = system: systolic blood pressure of spontaneously hypertensive rats (SHR); assay: Antihypertensive activity in spontaneously hypertensive rats (SHR); format: in vivo, rat; details: SHR Okomoto-Aoki strain; oral dose of 50 mg/kg; one hour following administration
Method: Antihypertensive activity is determined in spontaneously hypertensive rats (SHR) of the Okomoto-Aoki strain. Systolic blood pressure of the SHR is measured from the caudal artery by means of an indirect method utilizing a photocell transducer/trail cuff occluder system. Time response relationships are determined for each compound following an oral dose of 50 mg/kg. Data are expressed as mm of Hg decrease from control values. Statistical significance is determined using a 2 tailed "t" test comparing drug treatment response values to those obtained from concurrent vehicle treated animals. Under these conditions the compound 5-[2-[(2,3-dihydro-1,4-benzodioxan-2-ylmethyl)amino]-1-hydroxyethyl]-2-hydroxybenzamide lowered blood pressure by 24 mm of Hg one hour following administration of the drug substance.

β-Adrenergic receptor = target: T1, β-Adrenergic receptor (Cavia porcellus, UniProt H0W3H1); assay: β-Adrenergic receptor blocking activity, isolated guinea pig atria, isoproterenol as agonist; format: cell-based; details: increase in rate, read-out: pA2 value (β-adrenergic receptor blocking activity) (converted)
T1 construct: isolated guinea pig atria preparation; from tissue; host or cells: isolated guinea pig atria
Method: β-Adrenergic receptor blocking activity is determined in vitro by performing cumulative dose-response experiments in the isolated guinea pig atria preparation using isoproterenol as the agonist. The response (increase in rate) of the guinea pig atria preparation in the presence of logarithmically increasing concentrations of the compounds being tested are expressed as percent of the maximal attainable response. Relative antagonistic potency is expressed as a pA2 value, as defined above.

α-Adrenergic receptor = α-Adrenergic receptor blocking activity, isolated rabbit aortic strip, norepinephrine as agonist; format: cell-based; details: contractile response
Method: α-Adrenergic receptor blocking activity is determined in vitro by performing cumulative dose-response experiments in the isolated rabbit aortic strip preparation using norepinephrine as the agonist. The contractile response of the rabbit strip preparation in the presence of logarithmically increasing concentrations of the compounds being tested are expressed as percent of the maximal attainable response. Relative antagonistic potency is expressed as a pA2 value.

T1 sequence (H0W3H1 1-470): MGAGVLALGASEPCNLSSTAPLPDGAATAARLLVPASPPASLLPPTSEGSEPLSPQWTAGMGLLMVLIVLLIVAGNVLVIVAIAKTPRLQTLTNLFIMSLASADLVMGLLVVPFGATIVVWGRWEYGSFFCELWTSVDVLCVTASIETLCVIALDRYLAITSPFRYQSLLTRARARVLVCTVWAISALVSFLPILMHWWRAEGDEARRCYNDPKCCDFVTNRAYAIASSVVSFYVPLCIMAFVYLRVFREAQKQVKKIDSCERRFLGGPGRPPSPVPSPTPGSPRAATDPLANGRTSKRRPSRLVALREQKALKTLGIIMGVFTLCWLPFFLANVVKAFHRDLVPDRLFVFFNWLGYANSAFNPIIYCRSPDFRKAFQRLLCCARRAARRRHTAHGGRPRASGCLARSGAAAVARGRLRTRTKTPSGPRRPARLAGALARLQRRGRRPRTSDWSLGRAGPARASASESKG

Kb (β-Adrenergic receptor): 1450 nM
SMILES: NC(=O)c1cc(C(O)CNCC2COc3ccccc3O2)ccc1O (stereo not drawn) [5-[2-[(2,3-dihydro-1,4-benzodioxan-2-ylmethyl)amino]-1-hydroxyethyl]-2-hydroxybenzamide]
systolic blood pressure decrease from control values [1]: 24 mm of Hg | pA2 value (α-adrenergic receptor blocking activity) (α-Adrenergic receptor): 6.20
